Source: the supplement of paper PMC10307832

Columns and labels:
Assay in all cases: relative viability (nuclei count vs DMSO), 5 days (fraction); higher = more cells survive
Midostaurin + Crizotinib = compound: CO[C@@H]1[C@H](N(C)C(=O)c2ccccc2)C[C@H]2O[C@]1(C)n1c3ccccc3c3c4c(c5c6ccccc6n2c5c31)C(=O)NC4 [Midostaurin] + C[C@@H](Oc1cc(-c2cnn(C3CCNCC3)c2)cnc1N)c1c(Cl)ccc(F)c1Cl [Crizotinib] (partner 1 µM)
Summary of the method: (§1)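 For relative viability, nuclei counts in treated wells were divided by those in vehicle wells. Lung cancer cell lines had been pin-tool dosed in 1536-well plates the day after seeding and cultured for 5 days, then fixed and stained in one step (final 0.05% Triton X-100, 1% formaldehyde, 1 ug/ml Hoechst) and imaged at 4×. Doses were one drug alone or a fixed anchor-drug dose plus five library-drug doses (not always all listed) in √10 steps, and values are duplicate-plate medians.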

Midostaurin + Decitabine = compound: CO[C@@H]1[C@H](N(C)C(=O)c2ccccc2)C[C@H]2O[C@]1(C)n1c3ccccc3c3c4c(c5c6ccccc6n2c5c31)C(=O)NC4 [Midostaurin] + Nc1ncn([C@H]2C[C@H](O)[C@@H](CO)O2)c(=O)n1 [Decitabine] (partner 2 µM)
Summary of the method: as §1

[1] = compound: COc1cc(-c2nn([C@H]3CC[C@H](N4CCN(C(C)=O)CC4)CC3)c3ncnc(N)c23)ccc1NC(=O)c1cc2ccccc2n1C + CC(C)C[C@H](NC(=O)[C@H](Cc1ccccc1)NC(=O)c1cnccn1)B(O)O [Bortezomib] (partner 0.002 µM)
Summary of the method: as §1

[2] = compound: COc1cc(-c2nn([C@H]3CC[C@H](N4CCN(C(C)=O)CC4)CC3)c3ncnc(N)c23)ccc1NC(=O)c1cc2ccccc2n1C + Cc1cc(Nc2cc(N3CCN(C)CC3)nc(Sc3ccc(NC(=O)C4CC4)cc3)n2)n[nH]1 [Tozasertib] (partner 0.1 µM)
Summary of the method: as §1

[3] = compound: COc1cc(-c2nn([C@H]3CC[C@H](N4CCN(C(C)=O)CC4)CC3)c3ncnc(N)c23)ccc1NC(=O)c1cc2ccccc2n1C + O=C(CCCCCCC(=O)Nc1ccccc1)NO [Vorinostat] (partner 1 µM)
Summary of the method: as §1

| Cell Line | relative viability (Midostaurin + Crizotinib; first compound 0.01 µM) | relative viability (Midostaurin + Crizotinib; first compound 0.03162 µM) | relative viability (Midostaurin + Crizotinib; first compound 0.1 µM) | relative viability (Midostaurin + Crizotinib; first compound 0.3162 µM) | relative viability (Midostaurin + Decitabine; first compound 0.01 µM) | relative viability (Midostaurin + Decitabine; first compound 0.03162 µM) | relative viability (Midostaurin + Decitabine; first compound 0.1 µM) | relative viability (Midostaurin + Decitabine; first compound 0.3162 µM) | relative viability ([1]; first compound 0.0128 µM) | relative viability ([1]; first compound 0.04048 µM) | relative viability ([1]; first compound 0.128 µM) | relative viability ([1]; first compound 1.28 µM) | relative viability ([2]; first compound 0.0128 µM) | relative viability ([2]; first compound 0.04048 µM) | relative viability ([2]; first compound 0.128 µM) | relative viability ([2]; first compound 1.28 µM) | relative viability ([3]; first compound 0.0128 µM) | relative viability ([3]; first compound 0.04048 µM) | relative viability ([3]; first compound 0.128 µM) | relative viability ([3]; first compound 1.28 µM) |
| --- | --- | --- | --- | --- | --- | --- | --- | --- | --- | --- | --- | --- | --- | --- | --- | --- | --- | --- | --- | --- |
| HCC-44 | 0.747 | 0.787 | 0.697 | 0.627 | 0.899 | 0.972 | 0.989 | 0.997 | 0.993 | 0.886 | 0.897 | 1.27 | 0.707 | 1.29 | 0.796 | 0.819 | 1.24 | 1.1 | 1.12 | 1.18 |
| HCC-827 | 0.856 | 0.844 | 0.858 | 0.905 | 0.303 | 0.318 | 0.356 | 0.349 | 0.831 | 1.17 | 0.99 | 0.676 | 0.417 | 0.416 | 0.392 | 0.374 | 0.72 | 0.979 | 0.765 | 0.389 |
| NCI-H1623 | – | – | – | – | – | – | – | – | – | – | – | – | 0.449 | 0.419 | 0.424 | 0.41 | – | – | – | – |
| NCI-H2347 | 0.678 | 0.684 | 0.802 | 0.808 | 0.599 | 0.584 | 0.567 | 0.611 | 0.82 | 1.07 | 1.15 | 0.697 | 0.475 | – | 0.486 | 0.42 | 0.658 | 0.499 | 0.521 | 0.543 |
| PC-14 | 0.903 | 0.882 | 0.832 | 0.907 | 0.184 | 0.204 | 0.227 | 0.114 | 0.9 | 0.967 | 0.892 | 1.06 | 0.562 | 0.688 | 0.559 | 0.636 | 0.931 | 0.823 | 0.653 | 0.716 |
| NCI-H1651 | 0.916 | 0.85 | 0.918 | 0.889 | 0.612 | 0.596 | 0.696 | 0.649 | 0.85 | 0.949 | 0.939 | 0.84 | 0.616 | 0.769 | 0.635 | 0.37 | 0.571 | 0.618 | 0.545 | 0.495 |
| HARA | 0.902 | 0.977 | 0.86 | 0.958 | 0.584 | 0.528 | 0.539 | 0.591 | 1.12 | 1.16 | 1.1 | 0.803 | 0.11 | 0.0748 | 0.101 | 0.0842 | 0.698 | 0.372 | 0.421 | 0.325 |
| NCI-H1650 | 1.06 | 1.06 | 1.03 | 0.702 | 0.352 | 0.418 | 0.426 | 0.517 | 0.225 | 0.179 | 0.211 | 0.205 | 0.36 | 0.374 | 0.351 | 0.2 | 0.575 | 0.829 | 0.663 | 0.578 |
| NCI-H1395 | – | – | – | – | 0.681 | 0.81 | 0.712 | 0.702 | – | – | – | – | 0.77 | 0.81 | 0.714 | 0.561 | 0.823 | 0.594 | 0.698 | 0.516 |
| LU99A | 0.603 | 0.634 | 0.541 | 0.533 | 0.912 | 0.948 | 0.657 | 0.594 | 1.34 | 1.19 | 1.04 | 1.3 | 0.281 | 0.28 | 0.274 | 0.252 | 0.609 | 0.523 | 0.426 | 0.628 |
| NCI-H1355 | 0.965 | 1.01 | 0.987 | 1 | 0.361 | 0.386 | 0.346 | 0.348 | 1.4 | 1.23 | 1.22 | 1.15 | 0.541 | 0.551 | 0.497 | 0.28 | 0.801 | 0.639 | 0.641 | 0.625 |
| HCC-78 | 0.363 | 0.288 | 0.38 | 0.329 | 0.651 | 0.676 | 0.613 | 0.72 | 0.547 | 0.724 | 0.566 | 0.43 | 0.456 | 0.368 | 0.742 | 0.269 | 0.462 | 0.547 | 0.422 | 0.298 |
| NCI-H1563 | 0.817 | 0.872 | 0.85 | 0.834 | – | – | – | – | 0.916 | 0.882 | 0.824 | 0.664 | – | – | – | – | – | – | – | – |
| HCC-15 | 0.842 | 0.829 | 0.841 | 0.847 | 0.657 | 0.669 | 0.614 | 0.585 | 1.25 | 1 | 0.963 | 1.11 | 0.332 | 0.473 | 0.331 | 0.247 | 0.954 | 0.752 | 0.85 | 0.698 |
| EKVX | 1.07 | 0.988 | 0.868 | 0.929 | 0.312 | 0.312 | 0.353 | 0.349 | 1.07 | 1.1 | 0.917 | 0.401 | 0.398 | 0.379 | 0.332 | 0.19 | 0.966 | 0.801 | 0.674 | 0.382 |
| NCI-H2087 | 0.794 | 0.655 | 0.835 | 0.656 | 0.276 | 0.323 | 0.357 | 0.194 | 0.855 | 0.772 | 0.869 | 0.991 | 0.221 | – | 0.216 | 0.194 | 0.745 | – | 0.798 | 0.987 |
| LK-2 | 0.243 | 0.235 | 0.233 | 0.17 | 0.262 | 0.272 | 0.405 | 0.299 | – | – | – | – | 0.195 | 0.155 | 0.184 | 0.165 | 0.365 | 0.162 | 0.288 | 0.183 |
